Data on three compounds can be found in patent US9206161B2, “Bridged bicyclic heteroaryl substituted triazoles useful as Axl inhibitors” (Rigel Pharmaceuticals, Inc., priority 2008, dated 2015).

SMILES strings stand for the structures.

This experiment has as its target T1, Axl (Homo sapiens, UniProt P30530).
T1 construct: endogenous in cells; host or cells: HeLa cells
T1 sequence (P30530 26-894): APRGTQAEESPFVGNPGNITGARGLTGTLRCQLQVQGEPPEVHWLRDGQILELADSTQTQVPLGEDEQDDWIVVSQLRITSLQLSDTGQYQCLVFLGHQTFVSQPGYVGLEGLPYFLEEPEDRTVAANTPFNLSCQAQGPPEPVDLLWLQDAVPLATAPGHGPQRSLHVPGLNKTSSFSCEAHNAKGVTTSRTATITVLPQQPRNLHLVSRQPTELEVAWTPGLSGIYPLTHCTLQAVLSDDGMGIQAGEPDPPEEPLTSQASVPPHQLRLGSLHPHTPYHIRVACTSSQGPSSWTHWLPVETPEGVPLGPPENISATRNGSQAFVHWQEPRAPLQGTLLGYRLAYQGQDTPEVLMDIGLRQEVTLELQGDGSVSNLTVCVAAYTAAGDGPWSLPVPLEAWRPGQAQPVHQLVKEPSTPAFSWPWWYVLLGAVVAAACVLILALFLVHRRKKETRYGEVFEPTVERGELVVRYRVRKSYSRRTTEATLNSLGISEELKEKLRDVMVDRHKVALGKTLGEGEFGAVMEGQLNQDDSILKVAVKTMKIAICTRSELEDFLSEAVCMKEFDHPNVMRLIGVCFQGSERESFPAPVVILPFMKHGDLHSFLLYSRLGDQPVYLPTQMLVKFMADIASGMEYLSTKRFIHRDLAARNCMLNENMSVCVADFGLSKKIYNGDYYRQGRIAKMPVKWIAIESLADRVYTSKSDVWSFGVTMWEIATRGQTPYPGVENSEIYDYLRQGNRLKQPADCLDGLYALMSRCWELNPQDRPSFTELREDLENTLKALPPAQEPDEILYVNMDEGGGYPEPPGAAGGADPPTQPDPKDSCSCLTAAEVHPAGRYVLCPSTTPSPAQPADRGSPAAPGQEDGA
Kind of experiment: Phospho-Akt in-cell Western assay. It counts as cell-based. The note with it: Hela cells, Axl antibody cross-linking stimulation, phospho-Akt readout.

As for `CC(C)CN[C@H]1CCc2ccc(Nc3nc(N)n(-c4cc(-c5ccccc5)c5c(n4)C4CCN5CC4)n3)cc2CC1` [Compound 40, (7S)-1-(1,4-ethano-8-phenyl-1,2,3,4-tetrahydro-1,5-naphthyridin-6-yl)-N^3-(7-(isobutylamino)-6,7,8,9-tetrahydro-5H-benzo[7]annulene-2-yl)-1H-1,2,4-triazole-3,5-diamine], the concentration for half-maximal inhibition (IC50) (in general, the concentration that inhibits the measured activity by half) (Table 4, formula (III)) was below 1000 nM.

On to `Cc1cccc(-c2nnc(-n3nc(Nc4ccc(N5CCC(N6CCCC6)CC5)c(F)c4)nc3N)c3c2C2CCC3CC2)c1` [Compound 19, 1-(4-(3-methylphenyl)-5,8-ethano-5,6,7,8-tetrahydrophthalazine-1-yl)-N^3-(4-(4-(pyrrolidin-1-yl)piperidinyl)-3-fluorophenyl)-1H-1,2,4-triazole-3,5-diamine], for which the half-maximal inhibitory concentration (IC50) (Table 5, formula (IVa)) was in the range of 1000 to 10000 nM. Same read-out and setting: in the case of `Nc1nc(Nc2ccc(N3CCC(N4CCCC4)CC3)c(F)c2)nn1-c1nnc(-c2ccc3c(c2)OCO3)c2c1C1CCC2CC1` [Compound 17, 1-(4-(benzo[d][1,3]dioxol-5-yl)-5,8-ethano-5,6,7,8-tetrahydrophthalazine-1-yl)-N^3-(4-(4-(pyrrolidin-1-yl)piperidinyl)-3-fluorophenyl)-1H-1,2,4-triazole-3,5-diamine] it was below 1000 nM.
